Test results published in article PMC11514443 (Structure (London, England : 1993), 2019).
Square brackets hold non-standard residues; d marks the D form. Ends that are not written are not given here. Peptide text beside a SMILES is read from it. Lys(Me3) = C[N+](C)(C)CCCC[C@H](N)C(=O)O

Assays:
[1] = target: T1, MORC3-CW (Homo sapiens, UniProt Q14149); assay type: binding
[2] = target: T1, MORC3-CW; assay type: binding; settings: pH 6.8
[3] = target: MORC3-CW E431A mutant (Homo sapiens, UniProt Q14149, E431A); settings: NMR and fluorescence
[4] = test system: CW domain with W410 mutated to alanine; experiment: binding to MORC3-CW W410A mutant
[5] = test system: CW domain with W419 mutated to alanine; experiment: binding to MORC3-CW W419A mutant
[6] = target: MORC3 ATPase domain ATPase (Homo sapiens) (UniProt Q14149); settings: cited from earlier work
[7] = target: CW domain of human MORC3 (aa 401-455) (human) (UniProt Q14149); experiment: other fluorescence titration
[8] = target: T2, MORC3-CW E431A mutant (human, UniProt Q14149 401-455, E431A); experiment: other fluorescence titration
T2 sequence (looked up): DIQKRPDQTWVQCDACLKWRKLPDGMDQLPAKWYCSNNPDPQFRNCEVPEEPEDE

T1 sequence (Q14149 401-455): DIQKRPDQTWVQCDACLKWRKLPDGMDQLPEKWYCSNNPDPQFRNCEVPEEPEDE
Chain of MORC3 ATPase domain ATPase (Homo sapiens) (Q14149 1-400): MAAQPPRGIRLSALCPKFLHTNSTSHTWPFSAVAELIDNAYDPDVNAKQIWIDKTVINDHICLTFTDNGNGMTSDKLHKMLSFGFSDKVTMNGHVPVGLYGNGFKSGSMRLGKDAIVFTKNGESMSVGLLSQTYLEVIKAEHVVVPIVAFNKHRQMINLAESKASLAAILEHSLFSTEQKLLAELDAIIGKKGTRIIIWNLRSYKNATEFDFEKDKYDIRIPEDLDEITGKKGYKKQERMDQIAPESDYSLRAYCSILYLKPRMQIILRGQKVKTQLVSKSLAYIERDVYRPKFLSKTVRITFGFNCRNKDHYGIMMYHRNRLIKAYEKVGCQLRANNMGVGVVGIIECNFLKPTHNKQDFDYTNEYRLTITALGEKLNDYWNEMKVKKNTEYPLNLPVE
Chain of MORC3 CW (Q14149 404-454): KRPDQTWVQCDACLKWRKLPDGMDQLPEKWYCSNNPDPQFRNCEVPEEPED

## CSCC[C@H](N)C(=O)N[C@@H](C)C(=O)N[C@@H](CCCNC(=N)N)C(=O)N[C@H](C(=O)N[C@@H](C)C(=O)N[C@@H](CCCNC(=N)N)C(=O)N[C@@H](CO)C(=O)N[C@@H](CCCC[N+](C)(C)C)C(=O)N[C@H](C(=O)O)C(C)C)[C@@H](C)O [NS1K229me3] (H-MARTARS[Lys(Me3)]V-OH; N-terminus and C-terminus assumed)
[1]
  fold increase in binding affinity vs unmodified NS1 peptide: ~ 11 fold
[2]
  chemical shift perturbations (CSPs) in MORC3-CW: large chemical shift perturbations (CSPs)
[3]
  binding to E431A mutant: capable of binding
[4]
  binding to W410A mutant: abrogated binding
[5]
  binding to W419A mutant: abrogated binding

## MORC3 CW (from UniProt Q14149)
[6]
  Kd: 9 µM

## NS1 peptide trimethylated at K229 (residues 222-230 of NS1)
[7]
  Kd: 14 µM

## unmodified NS1 peptide (residues 222-230 of NS1)
[7]
  Kd: 157 µM

## ARTK(Me3)QTARKSTG (peptide, UniProt P68431 2-13, looked up) [histone H3 peptide trimethylated at lysine 4 (residues 1-12)]
[8]
  Kd: 0.6 µM
